Patent US20230150953A1, “SUBSTITUTED ISOPHTHALIC ACID DIAMIDES” (Bayer Aktiengesellschaft, priority 2020, published 2023)

Tests used:
Assay type in all cases: in vivo
[1] = tested on: ABUTH Abutilon theophrasti; assay: Pre-emergence herbicidal action against harmful plants; settings: scored visually after 3 weeks vs untreated controls
Text: (§1) The abbreviations used for the harmful plants mean: • ABUTH Abutilon theophrasti ALOMY Alopecurus myosuroides • AVEFA Avena fatua AMARE Amaranthus retroflexus • CYPES Cyperus esculentus DIGSA Digitaria sanguinalis • ECHCG Echinochloa crus-galli HORMU Hordeum murinum • LOLMU Lolium multiflorum LOLRI Lolium rigidum • MATIN Matricaria inodora PHBPU Pharbitis purpurea • POLCO Polygonum convolvulus SETVI Setaria viridis • STEME Stellaria media VERPE Veronica persica • VIOTR Viola tricolor 1. Pre-Emergence Herbicidal Action Against Harmful Plants Seeds of monocotyledonous and dicotyledonous weed plants and crop plants are laid out in sandy loam soil in wood-fiber pots and covered with soil. The compounds of the invention, formulated in the form of wettable powders (WP) or as emulsion concentrates (EC), are then applied to the surface of the covering soil in the form of an aqueous suspension or emulsion at a water application rate equivalent to 600 to 800 l/ha, with addition of 0.2% wetting agent. After the treatment, the pots are placed in a greenhouse and kept under good growth conditions for the trial plants. The damage to the test plants is scored visually after a test period of 3 weeks by comparison with untreated controls (herbicidal activity in percent (%): 100% activity=the plants have died, 0% activity=like control plants). […] The tables below illustrate, in an illustrative manner, the post-emergence herbicidal action of the compounds of the invention, the herbicidal activity being stated in percent.

[2] = tested on: AMARE Amaranthus retroflexus; assay: as above; settings: scored visually after 3 weeks vs untreated controls
Text: as §1

[3] = tested on: DIGSA Digitaria sanguinalis; assay: as above; settings: scored visually after 3 weeks vs untreated controls
Text: as §1

LOLRI Lolium rigidum = assay: as above; settings: scored visually after 3 weeks vs untreated controls
Text: as §1

MATIN Matricaria inodora = assay: as above; settings: scored visually after 3 weeks vs untreated controls
Text: as §1

PHBPU Pharbitis purpurea [4] = assay: as above; settings: scored visually after 3 weeks vs untreated controls
Text: as §1

[5] = tested on: POLCO Polygonum convolvulus; assay: as above; settings: scored visually after 3 weeks vs untreated controls
Text: as §1

[6] = tested on: AMARE Amaranthus retroflexus; assay: Post-emergence herbicidal action against harmful plants; settings: one-leaf stage, assessed visually after about 3 weeks vs untreated controls
Text: (§2) The abbreviations used for the harmful plants mean: • ABUTH Abutilon theophrasti ALOMY Alopecurus myosuroides • AVEFA Avena fatua AMARE Amaranthus retroflexus • CYPES Cyperus esculentus DIGSA Digitaria sanguinalis • ECHCG Echinochloa crus-galli HORMU Hordeum murinum • LOLMU Lolium multiflorum LOLRI Lolium rigidum • MATIN Matricaria inodora PHBPU Pharbitis purpurea • POLCO Polygonum convolvulus SETVI Setaria viridis • STEME Stellaria media VERPE Veronica persica • VIOTR Viola tricolor 2. Post-Emergence Herbicidal Action Against Harmful Plants Seeds of monocotyledonous and dicotyledonous weed and crop plants are laid out in sandy loam soil in wood-fiber pots, covered with soil and cultivated in a greenhouse under good growth conditions. 2 to 3 weeks after sowing, the test plants are treated at the one-leaf stage. The compounds of the invention, formulated in the form of wettable powders (WP) or as emulsion concentrates (EC), are then sprayed onto the green parts of the plants in the form of an aqueous suspension or emulsion at a water application rate equivalent to 600 to 800 l/ha, with addition of 0.2% wetting agent. After the test plants have been left to stand in the greenhouse under optimal growth conditions for about 3 weeks, the action of the preparations is assessed visually in comparison to untreated controls (herbicidal action in percent (%): 100% activity=the plants have died, 0% activity=like control plants). […] The tables below illustrate, in an illustrative manner, the post-emergence herbicidal action of the compounds of the invention, the herbicidal activity being stated in percent.

[7] = tested on: ECHCG Echinochloa crus-galli; assay: as above; settings: 20 g/ha, one-leaf stage, assessed visually after about 3 weeks vs untreated controls
Text: as §2

PHBPU Pharbitis purpurea [8] = assay: as above; settings: one-leaf stage, assessed visually after about 3 weeks vs untreated controls
Text: as §2

[9] = tested on: ALOMY Alopecurus myosuroides; assay: Pre-emergence herbicidal action against harmful plants; settings: 80 g/ha, scored visually after 3 weeks vs untreated controls
Text: as §1

SETVI Setaria viridis = assay: as above; settings: scored visually after 3 weeks vs untreated controls
Text: as §1

[10] = tested on: ECHCG Echinochloa crus-galli; assay: as above; settings: scored visually after 3 weeks vs untreated controls
Text: as §1

[11] = tested on: DIGSA Digitaria sanguinalis; assay: Post-emergence herbicidal action against harmful plants; settings: one-leaf stage, assessed visually after about 3 weeks vs untreated controls
Text: as §2

Row | SMILES | Pre-emergence action at 80 g/ha against ABUTH in % [1] [%] | Pre-emergence action at 20 g/ha against AMARE in % [2] [%] | Pre-emergence action at 80 g/ha against AMARE in % [2] [%] | Pre-emergence action at 20 g/ha against DIGSA in % [3] [%] | Pre-emergence action at 80 g/ha against DIGSA in % [3] [%] | Pre-emergence action at 80 g/ha against LOLRI in % (LOLRI Lolium rigidum) [%] | Pre-emergence action at 20 g/ha against MATIN in % (MATIN Matricaria inodora) [%] | Pre-emergence action at 80 g/ha against MATIN in % (MATIN Matricaria inodora) [%] | Pre-emergence action at 80 g/ha against PHBPU in % (PHBPU Pharbitis purpurea [4]) [%] | Pre-emergence action at 20 g/ha against POLCO in % [5] [%] | Pre-emergence action at 80 g/ha against POLCO in % [5] [%] | Post-emergence action at 5 g/ha against AMARE in % [6] [%] | Post-emergence action at 20 g/ha against AMARE in % [6] [%] | Post-emergence action at 20 g/ha against ECHCG in % [7] [%] | Post-emergence action at 20 g/ha against PHBPU in % (PHBPU Pharbitis purpurea [8]) [%] | Pre-emergence action at 80 g/ha against ALOMY in % [9] [%] | Pre-emergence action at 80 g/ha against SETVI in % (SETVI Setaria viridis) [%] | Pre-emergence action at 80 g/ha against ECHCG in % [10] [%] | other results
1 | CCn1nnnc1NC(=O)c1c(F)cc(C(F)(F)F)c(C(=O)NC)c1C [Example 2-92] | 80 | 100 | 100 | 80 | 100 | 90 | 90 | 90 | 80 | 80 | 90 | 90 | 90 | 80 | 80 |  |  |  | 
2 | Cc1c(C(=O)Nc2nnnn2C)c(F)cc(C(F)(F)F)c1C(=O)NCC(F)F [Example 1-385, N^1-(2,2-difluoroethyl)-4-fluoro-2-methyl-N^3-(1-methyl-1H-tetrazol-5-yl)-6-(trifluoromethyl)isophthalamide] | 80 | 90 | 100 | 80 | 100 |  |  | 90 | 80 |  |  | 90 | 90 |  |  | 90 | 90 |  | 
3 | CCNC(=O)c1c(C(F)(F)F)cc(F)c(C(=O)Nc2nnnn2C)c1C [Example 1-93] | 100 | 100 | 100 | 80 | 100 | 80 |  | 90 | 90 |  | 80 | 90 | 90 |  | 90 | 80 | 80 | 90 | Pre-emergence action at 20 g/ha against ABUTH in % [1]: 100%; Post-emergence action at 5 g/ha against PHBPU in % (PHBPU Pharbitis purpurea [8]; 5 g/ha): 80%
4 | CCN(C)C(=O)c1c(C(F)(F)F)cc(F)c(C(=O)Nc2nnnn2C)c1C [Example 1-96] | 100 |  | 100 |  | 100 |  | 80 | 100 |  |  |  | 80 | 90 | 80 |  | 80 | 100 | 80 | Post-emergence action at 20 g/ha against DIGSA in % [11]: 90%
5 | CCn1nnnc1NC(=O)c1c(F)cc(C(F)(F)F)c(C(=O)NCC#N)c1C [Example 2-386] |  |  | 100 |  |  |  |  | 80 |  |  | 80 |  |  |  |  |  |  |  | 
6 | CCn1nnnc1NC(=O)c1c(F)cc(C(F)(F)F)c(C(=O)NCC2CC2)c1C [Example 2-384] | 100 | 100 | 100 | 80 | 100 |  |  | 100 | 80 | 90 | 100 | 90 | 90 | 80 |  | 80 | 80 | 80 | Pre-emergence action at 20 g/ha against ABUTH in % [1]: 90%
7 | CCn1nnnc1NC(=O)c1c(F)cc(C(F)(F)F)c(C(=O)N(C)C)c1C [Example 2-95, N′-(1-ethyl-1H-tetrazol-5-yl)-4-fluoro-N,N,2-trimethyl-6-(trifluoromethyl)isophthalamide] | 100 |  | 100 | 90 | 100 | 80 |  | 90 |  | 80 | 100 |  |  |  | 80 | 90 | 90 | 80 | 
8 | CCNC(=O)c1c(C(F)(F)F)cc(OC)c(C(=O)Nc2nnnn2C)c1Cl [Example 1-388] |  |  |  |  |  |  |  |  |  |  |  |  | 80 |  |  |  |  |  | 
9 | CCNC(=O)c1c(C(F)(F)F)cc(F)c(C(=O)Nc2nnnn2CC)c1C [Example 2-93, N^1-ethyl-N^3-(1-ethyl-1H-tetrazol-5-yl)-4-fluoro-2-methyl-6-(trifluoromethyl)isophthalamide] | 100 | 100 | 100 |  | 100 |  | 80 | 90 | 90 |  |  | 80 | 90 |  | 90 | 90 | 80 | 80 | Pre-emergence action at 20 g/ha against PHBPU in % (PHBPU Pharbitis purpurea [4]; 20 g/ha): 80%
10 | Cc1c(C(=O)Nc2nnnn2C)c(F)cc(C(F)(F)F)c1C(=O)N(C)C [Example 1-95] |  | 90 | 100 | 80 | 90 |  |  | 90 |  |  | 80 |  | 90 |  |  | 90 | 100 |  | Pre-emergence action at 20 g/ha against SETVI in % (SETVI Setaria viridis; 20 g/ha): 100%
